Measured values published in patent US8871929B2, “Fused-imidazoyl compounds useful as antimicrobial agents” (Merck Sharp & Dohme Corp., priority 2010, dated 2014).
≈ marks a conversion by molar mass, not a printed value.

These molecules were tested on Staphylococcus aureus ATCC29213 (assay: Susceptibility testing (MIC determination), broth microdilution). Conditions: Mueller Hinton broth, 96-well plate, overnight incubation at 35° C., read-out: MIC Staph. aureus ATCC-29213.
Type: cell-based
Protocol: Compounds useful in the method of the invention were investigated for their utility as antimicrobial agents in the following assay. Susceptibility testing (MIC determinations) was performed using the standard broth microdilution methodology precisely as described in the Clinical Laboratory Standards Institute Document M7-A6; Methods for Dilution Antimicrobial Susceptibility Tests for Bacteria That Grow Aerobically; […] To perform the test, a series of 0.1 ml media in a 96-well plate is prepared with Mueller Hinton broth to which various concentrations of the test compound are added. The media are then inoculated with a standardized suspension of the test organism, Staphylococcus aureus ATCC29213. After overnight incubation at 35° C., the tests are examined and the minimal inhibitory concentration (MIC) is determined. MIC is defined as the lowest concentration of an antimicrobial agent that prevents visible growth of a microorganism in the broth microdilution susceptibility test
With `O=C(CNc1c(-c2ccc(N3CCOCC3)nc2)nc2cccc(Cl)n12)N1CCN(c2c(Cl)cncc2Cl)CC1` [Compound 1] the MIC was 0.06 µg/mL (≈ 0.0997 µM).
Work on `CCN1CCc2cc(-c3nc4ccccn4c3NCC(=O)N3CCN(c4c(Cl)cncc4Cl)CC3)ccc21` [Compound 2] yielded an MIC of 0.125 µg/mL (≈ 0.227 µM).
`O=C(CNc1c(-c2ccc(N3CCSCC3)nc2)nc2cnccn12)N1CCN(c2c(Cl)cncc2Cl)CC1` [Compound 3] showed an MIC of 0.125 µg/mL (≈ 0.214 µM).
For `Cc1cccc2nc(-c3ccc(N4CCOCC4)nc3)c(NCC(=O)N3CCN(c4c(Cl)cncc4Cl)CC3)n12` [Compound 5], the MIC was 0.25 µg/mL (≈ 0.43 µM).
Work on `Cc1ccc2nc(-c3ccc(N4CCOCC4)nc3)c(NCC(=O)N3CCN(c4c(Cl)cncc4Cl)CC3)n2c1` [Compound 6] yielded an MIC of 0.25 µg/mL (≈ 0.43 µM).
`O=C(CNc1c(-c2ccc(N3CCOCC3)nc2)nc2cnccn12)N1CCN(c2c(Cl)cncc2Cl)CC1` [Compound 7] gave an MIC of 0.4 µg/mL (≈ 0.704 µM).
`O=C(CNc1c(-c2ccc(N3CCCCC3)nc2)nc2cnccn12)N1CCN(c2c(Cl)cncc2Cl)CC1` [Compound 8] was tested, and the MIC was 0.44 µg/mL (≈ 0.777 µM).
`O=C(CNc1c(-c2ccc(N3CCCC3)nc2)nc2cnccn12)N1CCN(c2c(Cl)cncc2Cl)CC1` [Compound 9] showed an MIC of 0.46 µg/mL (≈ 0.833 µM).
With `CN1CCOc2cc(-c3nc4cnccn4c3NCC(=O)N3CCN(c4c(Cl)cncc4Cl)CC3)ccc21` [Compound 10] the MIC was 0.5 µg/mL (≈ 0.903 µM).
`CCN1CCCc2cc(-c3nc4cnccn4c3NCC(=O)N3CCN(c4c(Cl)cncc4Cl)CC3)ccc21` [Compound 11] showed an MIC of 0.5 µg/mL (≈ 0.884 µM).
`CN(C)c1ccc(-c2nc3cnccn3c2NCC(=O)N2CCN(c3c(Cl)cncc3Cl)CC2)cn1` [Compound 12] showed an MIC of 0.5 µg/mL (≈ 0.95 µM).
With `CN1CCCc2cc(-c3nc4cnccn4c3NCC(=O)N3CCN(c4c(Cl)cncc4Cl)CC3)ccc21` [Compound 13] the MIC was 0.96 µg/mL (≈ 1.74 µM).
For `CC(C)N1CCCc2cc(-c3nc4cnccn4c3NCC(=O)N3CCN(c4c(Cl)cncc4Cl)CC3)ccc21` [Compound 14], the MIC was 1 µg/mL (≈ 1.73 µM).
In the case of `CC(C)N1CCc2cc(-c3nc4cnccn4c3NCC(=O)N3CCN(c4c(Cl)cncc4Cl)CC3)ccc21` [Compound 15], the MIC was 1 µg/mL (≈ 1.77 µM).
`CCc1ccc(-c2nc3cnccn3c2NCC(=O)N2CCN(c3c(Cl)cncc3Cl)CC2)s1` [Compound 16] was tested, and the MIC was 2 µg/mL (≈ 3.87 µM).
Work on `CCCN1CCc2cc(-c3nc4cnccn4c3NCC(=O)N3CCN(c4c(Cl)cncc4Cl)CC3)ccc21` [Compound 17] yielded an MIC of 2 µg/mL (≈ 3.54 µM).
`CCc1ccc(-c2nc3cnccn3c2NCC(=O)N2CCN(c3c(Cl)cccc3Cl)CC2)s1` [Compound 18] gave an MIC of 3 µg/mL (≈ 5.82 µM).
`CCN1CCc2cc(-c3nc4cnccn4c3NCC(=O)N3CCN(c4ccccc4C#N)CC3)ccc21` [Compound 19] was tested, and the MIC was 4 µg/mL (≈ 7.9 µM).
Molecule `O=C(CNc1c(-c2cnc(N3CCCCC3)nc2)nc2cnccn12)N1CCN(c2c(Cl)cncc2Cl)CC1` [Compound 21] has an MIC of 4 µg/mL (≈ 7.05 µM).
`Cn1ccc2cc(-c3nc4cnccn4c3NCC(=O)N3CCN(c4c(Cl)cncc4Cl)CC3)ccc21` [Compound 22] gave an MIC of 8 µg/mL (≈ 14.9 µM).
In the case of `CCc1ccc(-c2nc3cnccn3c2NCC(=O)N2CCN(c3c(Cl)cccc3Cl)CC2)o1` [Compound 23], the MIC was 8 µg/mL (≈ 16 µM).
In the case of `CC(C)N1CCCc2cc(-c3nc4cnccn4c3NCC(=O)N3CCN(c4ccccc4C#N)CC3)ccc21` [Compound 24], the MIC was 8 µg/mL (≈ 15 µM).
In the case of `CCCN1CCCc2cc(-c3nc4cnccn4c3NCC(=O)N3CCN(c4c(Cl)cncc4Cl)CC3)ccc21` [Compound 25], the MIC was 8 µg/mL (≈ 13.8 µM).
With `CCN1CCc2cc(-c3nc4cnccn4c3NCC(=O)N3CCN(c4ncccc4C#N)CC3)ccc21` [Compound 26] the MIC was 8 µg/mL (≈ 15.8 µM).
Work on `O=C(CNc1c(-c2ccc(N3CCCC3)cc2)nc2ccccn12)N1CCN(c2c(Cl)cncc2Cl)CC1` [Compound 27] yielded an MIC of 0.06 µg/mL (≈ 0.109 µM).
Molecule `CN(C)c1ccc(-c2nc3ccccn3c2NCC(=O)N2CCN(c3c(Cl)cncc3Cl)CC2)cc1` [Compound 28] has an MIC of 0.31 µg/mL (≈ 0.591 µM).
Molecule `Cc1cccc(N2CCN(C(=O)CNc3c(-c4ccc(N5CCCC5)cc4)nc4ccccn34)CC2)c1C` [Compound 29] has an MIC of 5 µg/mL (≈ 9.83 µM).
In the case of `O=C(CNc1c(-c2ccc(N3CCCC3)cc2)nc2ccccn12)N1CCN(c2ccccc2Cl)CC1` [Compound 30], the MIC was 5 µg/mL (≈ 9.71 µM).
For `CN(C)c1ccc(-c2nc3ccccn3c2NCC(=O)N2CCN(c3ccccc3Cl)CC2)cc1` [Compound 31], the MIC was 5 µg/mL (≈ 10.2 µM).
Molecule `CCN1CCc2cc(-c3nc4cnccn4c3NCC(=O)N3CCN(c4c(Cl)cncc4Cl)CC3)ccc21` [Compound 33] has an MIC of 0.19 µg/mL (≈ 0.345 µM).
For `Cc1ccccc1N1CCN(C(=O)CNc2c(-c3ccc(N4CCCC4)cc3)nc3ccccn23)CC1` [Compound 34], the MIC was 5 µg/mL (≈ 10.1 µM).
In the case of `N#Cc1ccccc1N1CCN(C(=O)CNc2c(-c3ccc(N4CCCC4)cc3)nc3ccccn23)CC1` [Compound 35], the MIC was 0.313 µg/mL (≈ 0.619 µM).
In the case of `N#Cc1cccnc1N1CCN(C(=O)CNc2c(-c3ccc(N4CCCC4)cc3)nc3ccccn23)CC1` [Compound 36], the MIC was 0.625 µg/mL (≈ 1.23 µM).
`Cc1cccc(C)c1N1CCN(C(=O)CNc2c(-c3ccc(N4CCCC4)cc3)nc3ccccn23)CC1` [Compound 37] was tested, and the MIC was 0.5 µg/mL (≈ 0.983 µM).
`CSc1ccccc1N1CCN(C(=O)CNc2c(-c3ccc(N4CCCC4)cc3)nc3ccccn23)CC1` [Compound 39] gave an MIC of 1 µg/mL (≈ 1.9 µM).
In the case of `Cc1ccc(Cl)cc1N1CCN(C(=O)CNc2c(-c3ccc(N4CCCC4)cc3)nc3ccccn23)CC1` [Compound 40], the MIC was 1 µg/mL (≈ 1.89 µM).
`O=C(CNc1c(-c2ccc(N3CCCC3)cc2)nc2ccccn12)N1CCN(c2c(Cl)cccc2Cl)CC1` [Compound 41] gave an MIC of 0.313 µg/mL (≈ 0.57 µM).
For `O=C(CNc1c(-c2ccc(N3CCCC3)cc2)nc2ccccn12)N1CCN(c2ccncc2Cl)CC1` [Compound 42], the MIC was 2.5 µg/mL (≈ 4.84 µM).
Work on `Cc1ccccc1C1CCN(C(=O)CNc2c(-c3ccc(N4CCCC4)cc3)nc3ccccn23)CC1` [Compound 43] yielded an MIC of 8 µg/mL (≈ 16.2 µM).
`O=C(CNc1c(-c2ccc(N3CCCC3)cc2)nc2ccccn12)N1CCC(c2cccc3ccccc23)CC1` [Compound 44] gave an MIC of 4 µg/mL (≈ 7.55 µM).
`N#Cc1ccccc1N1CCN(C(=O)CNc2c(-c3ccc(N4CCCC4)cc3)nc3cnccn23)CC1` [Compound 46] gave an MIC of 0.313 µg/mL (≈ 0.618 µM).
`N#Cc1cccnc1N1CCN(C(=O)CNc2c(-c3ccc(N4CCCC4)cc3)nc3cnccn23)CC1` [Compound 47] showed an MIC of 0.625 µg/mL (≈ 1.23 µM).
`CSc1ccccc1N1CCN(C(=O)CNc2c(-c3ccc(N4CCCC4)cc3)nc3cnccn23)CC1` [Compound 49] showed an MIC of 5 µg/mL (≈ 9.48 µM).
For `Cc1ccc(Cl)cc1N1CCN(C(=O)CNc2c(-c3ccc(N4CCCC4)cc3)nc3cnccn23)CC1` [Compound 50], the MIC was 2.5 µg/mL (≈ 4.72 µM).
In the case of `O=C(CNc1c(-c2ccc(N3CCCC3)cc2)nc2cnccn12)N1CCN(c2ccncc2Cl)CC1` [Compound 51], the MIC was 5 µg/mL (≈ 9.67 µM).
Molecule `O=C(CNc1c(-c2ccc(N3CCCC3)cc2)nc2cnccn12)N1CCC(c2cccc3ccccc23)CC1` [Compound 52] has an MIC of 5 µg/mL (≈ 9.42 µM).
For `CN(C)c1ccc(-c2nc3ccccn3c2NCC(=O)N2CCN(c3ncccc3C#N)CC2)cc1` [Compound 55], the MIC was 6 µg/mL (≈ 12.5 µM).
Work on `Cc1cccc(C)c1N1CCN(C(=O)CNc2c(-c3ccc(N(C)C)cc3)nc3ccccn23)CC1` [Compound 56] yielded an MIC of 2 µg/mL (≈ 4.14 µM).
In the case of `CN(C)c1ccc(-c2nc3ccccn3c2NCC(=O)N2CCN(c3c(Cl)cccc3Cl)CC2)cc1` [Compound 57], the MIC was 0.25 µg/mL (≈ 0.478 µM).
In the case of `CN(C)c1ccc(-c2nc3cnccn3c2NCC(=O)N2CCN(c3ccccc3C#N)CC2)cc1` [Compound 58], the MIC was 6 µg/mL (≈ 12.5 µM).
In the case of `CN(C)c1ccc(-c2nc3cnccn3c2NCC(=O)N2CCN(c3ncccc3C#N)CC2)cc1` [Compound 59], the MIC was 6 µg/mL (≈ 12.5 µM).
With `Cc1ccc(Cl)cc1N1CCN(C(=O)CNc2c(-c3ccc(N(C)C)cc3)nc3cnccn23)CC1` [Compound 60] the MIC was 8 µg/mL (≈ 15.9 µM).
`CN(C)c1ccc(-c2nc3cnccn3c2NCC(=O)N2CCN(c3c(Cl)cccc3Cl)CC2)cc1` [Compound 61] showed an MIC of 0.25 µg/mL (≈ 0.477 µM).
`CN(C)c1ccc(-c2nc3cnccn3c2NCC(=O)N2CCC(c3cccc4ccccc34)CC2)cc1` [Compound 62] was tested, and the MIC was 8 µg/mL (≈ 15.9 µM).
Work on `CC(C)c1ccc(-c2nc3cnccn3c2NCC(=O)N2CCN(c3c(Cl)cccc3Cl)CC2)cc1` [Compound 65] yielded an MIC of 1 µg/mL (≈ 1.91 µM).
For `CC(C)c1ccc(-c2nc3cnccn3c2NCC(=O)N2CCN(c3ccccc3C#N)CC2)cc1` [Compound 66], the MIC was 8 µg/mL (≈ 16.7 µM).
Molecule `CC(C)c1ccc(-c2nc3cnccn3c2NCC(=O)N2CCN(c3ncccc3C#N)CC2)cc1` [Compound 67] has an MIC of 4 µg/mL (≈ 8.32 µM).
`CCc1ccc(-c2nc3cnccn3c2NCC(=O)N2CCN(c3c(Cl)cccc3Cl)CC2)cc1` [Compound 70] gave an MIC of 4 µg/mL (≈ 7.85 µM).
Work on `O=C(CNc1c(-c2ccc(N3CCCC3)cc2)nc2cnccn12)N1CCN(c2ccccc2C(F)(F)F)CC1` [Compound 72] yielded an MIC of 8 µg/mL (≈ 14.6 µM).
With `O=C(CNc1c(-c2ccc(N3CCOCC3)cc2)nc2ccccn12)N1CCN(c2c(Cl)cncc2Cl)CC1` [Compound 73] the MIC was 0.09 µg/mL (≈ 0.159 µM).
With `Cc1ccn2c(NCC(=O)N3CCN(c4c(Cl)cncc4Cl)CC3)c(-c3ccc(N4CCOCC4)cc3)nc2c1` [Compound 74] the MIC was 0.06 µg/mL (≈ 0.103 µM).
For `Cc1cccc2nc(-c3ccc(N4CCOCC4)cc3)c(NCC(=O)N3CCN(c4c(Cl)cncc4Cl)CC3)n12` [Compound 76], the MIC was 0.03 µg/mL (≈ 0.0517 µM).
`O=C(CNc1c(-c2ccc(N3CCOCC3)cc2)nc2ccc(C(F)(F)F)cn12)N1CCN(c2c(Cl)cncc2Cl)CC1` [Compound 77] was tested, and the MIC was 0.06 µg/mL (≈ 0.0946 µM).
With `Cc1ccc2nc(-c3ccc(N4CCOCC4)cc3)c(NCC(=O)N3CCN(c4c(Cl)cncc4Cl)CC3)n2c1` [Compound 78] the MIC was 0.125 µg/mL (≈ 0.215 µM).
In the case of `O=C(CNc1c(-c2ccc(N3CCOCC3)cc2)nc2cccc(Cl)n12)N1CCN(c2c(Cl)cncc2Cl)CC1` [Compound 79], the MIC was 0.06 µg/mL (≈ 0.0998 µM).
`O=C(CNc1c(-c2ccc(N3CCOCC3)cc2)nc2cccc(C(F)(F)F)n12)N1CCN(c2c(Cl)cncc2Cl)CC1` [Compound 80] showed an MIC of 0.25 µg/mL (≈ 0.394 µM).
`O=C(CNc1c(-c2ccc(N3CCOCC3)cc2)nc2ccc(Cl)cn12)N1CCN(c2c(Cl)cncc2Cl)CC1` [Compound 81] was tested, and the MIC was 0.25 µg/mL (≈ 0.416 µM).
Work on `O=C(CNc1c(-c2ccc(N3CCOCC3)cc2)nc2cc(C(F)(F)F)ccn12)N1CCN(c2c(Cl)cncc2Cl)CC1` [Compound 82] yielded an MIC of 0.125 µg/mL (≈ 0.197 µM).
Molecule `O=C(CNc1c(-c2ccc(N3CCOCC3)cc2)nc2ccc(F)cn12)N1CCN(c2c(Cl)cncc2Cl)CC1` [Compound 83] has an MIC of 0.125 µg/mL (≈ 0.214 µM).
